In data set [1] the test system is PBMC. The data set can be described thus: Immunostimulatory activity in human PBMC assessed as reduction in cell proliferation at 100 uM after 48 hrs by [3H]thymidine incorporation assay relative to control. The data set is classed as functional, cell-based.
Data set [2] deals with PBMC. The experiment in a line: Cytotoxicity in human PBMC cells at 100 uM after 48 hrs. The data set is classed as cell-based.
Data set [3] deals with PBMC. The data set can be described thus: Immunostimulatory activity in human PBMC assessed as cell activation at 10 uM after 48 hrs by [3H]thymidine incorporation assay relative to control. The data set is classed as functional, cell-based. A general note: Incorporation of labelled thymidine or its analogues reports DNA synthesis.

Activity calls are given as the source filed them. The rule behind the calls is not given here.

Take `CCCCCCCC[C@@H](O)[C@H](O)/C=C/C(O)CCCCC(=O)O` (relative stereo): in the data set with PBMC [1], the outcome was inactive. The Activity entry in the data set with PBMC [2] is recorded as “Toxic”.

For `CCCCCCCC[C@H](O)[C@H](O)/C=C/C(O)CCCCC(=O)O` (relative stereo), the result in the data set on PBMC [1] was inactive. Moreover, the result in the data set with PBMC [3] was Active. Moreover, in the data set on PBMC [2], the Activity result was “Toxic”.

Regarding `CCCCCCCC[C@H](O)[C@@H](O)[C@H](O)/C=C\CCCCC(=O)O` (relative stereo), the outcome in the data set with PBMC [1] was inactive. In the data set on PBMC [2], the Activity entry is on record as “Toxic”.

As for `CC/C=C\C/C=C\[C@@H](O)[C@H](O)[C@@H](O)CCCCCCCC(=O)O` (relative stereo), the outcome with PBMC [1] was inactive. The Activity entry in the data set with PBMC [2] is on record as “Toxic”.

The values are drawn from ChEMBL document CHEMBL1151993, “Oxylipins from Dracontium loretense” (J Nat Prod, 2009).
